Laboratory results as given in paper PMC3942691, “The Dipeptide Monoester Prodrugs of Floxuridine and Gemcitabine—Feasibility of Orally Administrable Nucleoside Analogs” (Pharmaceuticals, 2014).
Where two headings read alike, the source gives them in different places. Marks after values point to notes of the source that are not given here.

Assays:
[1] = test system: Caco-2, Panc-1, and AsPC-1 cell homogenates; experiment: Enzymatic stability compared across Caco-2, Panc-1 and AsPC-1 cell homogenates; assay type: in vitro ADME
Protocol: (§1) Confluent Caco-2, Panc-1, and AsPC-1cells were rinsed twice with phosphate buffered saline (PBS). The cells were lysed with phosphate buffer (pH 7.4) by ultrasonication (Micro ultrasonic cell disrupter Model KT40, Kontes, Vineland, NJ, USA), and pelleted by centrifugation for 5 min at 1,000 × g. Protein amount was quantified with the Bio-Rad (Hercules, CA, USA) DC Protein Assay using bovine serum albumin as a standard. The amount of protein was adjusted to 500 µg/mL and hydrolysis reactions were carried out in 96-well plates (Corning). […] The filtrate was then analyzed via reverse-phase HPLC.
The experiments concerning drug and their prodrug stability were performed at 37 °C in 0.01 N HCl, SIF (pH 6.0), and pH 7.4 phosphate buffer. […] Prodrug metabolites such as floxuridine, 5-fluorouracil (5-FU), gemcitabine, 2′-deoxy-2′,2′-difluorouridine, uracil, and cytosine were monitored along with prodrug disappearance in this experiment. However, the mass balance could not be established because 5-FU, cytosine and uracil were metabolized even further and those metabolites could not be quantified by HPLC [11, 50]. The specific kinetic parameters in drug/prodrug metabolism could not be determined without the mass balance and the data of enzymatic activities and their expression levels because those metabolic activities were simultaneously taken place. […]

Panc-1 cell homogenates = experiment: Enzymatic stability in Panc-1 cell homogenates; assay type: in vitro ADME; conditions: 500 µg/mL protein, 37 °C
Protocol: (§2) Confluent Caco-2, Panc-1, and AsPC-1cells were rinsed twice with phosphate buffered saline (PBS). The cells were lysed with phosphate buffer (pH 7.4) by ultrasonication (Micro ultrasonic cell disrupter Model KT40, Kontes, Vineland, NJ, USA), and pelleted by centrifugation for 5 min at 1,000 × g. Protein amount was quantified with the Bio-Rad (Hercules, CA, USA) DC Protein Assay using bovine serum albumin as a standard. The amount of protein was adjusted to 500 µg/mL and hydrolysis reactions were carried out in 96-well plates (Corning). Caco-2, Panc-1, and AsPC-1 cell suspensions (250 µL) were placed in triplicate wells, the reactions were started with the addition of substrate, and cells were incubated at 37 °C for 120 min. At the desired time point, sample aliquots (35 µL) were removed and added to acetonitrile (ACN, 150 µL) with 0.1% TFA. The mixtures were filtered with a 0.45 µm filters at 1,000 × g for 10 min at 4 °C. The filtrate was then analyzed via reverse-phase HPLC.
(§3) The stability samples of prodrugs and their metabolites, and perfusion samples were determined on an Agilent HPLC system (Agilent Technologies, Santa Clara, CA, USA). The HPLC system consisted of Agilent pumps (1100 series), an Agilent autosampler (1200 series), and an Agilent UV-Vis detector (1100 series) controlled by Chemstation® 32 software (version B.01.03). Samples were resolved in an Agilent Eclipse Plus C18 reverse-phase column (3.5 µm, 4.6 × 75 mm) equipped with a guard column. The mobile phase consisted of 0.1% TFA/water (Solvent A) and 0.1% TFA/acetonitrile (Solvent B) with the solvent B gradient changing from 0%–56% at a rate of […] during a 15 min run for gemcitabine and gemcitabine prodrugs. Standard curves generated for each prodrug and their parent drug were utilized for quantitation of integrated area under peaks. The detection wavelength was 254 nm and spectra were acquired in the 220–380 nm wavelength range. The detection wavelength for phenol red was 430 nm.
(§4) The experiments concerning drug and their prodrug stability were performed at 37 °C in 0.01 N HCl, SIF (pH 6.0), and pH 7.4 phosphate buffer. […] Prodrug metabolites such as floxuridine, 5-fluorouracil (5-FU), gemcitabine, 2′-deoxy-2′,2′-difluorouridine, uracil, and cytosine were monitored along with prodrug disappearance in this experiment.

Caco-2 cell homogenates [2] = experiment: Enzymatic stability in Caco-2 cell homogenates; assay type: in vitro ADME; conditions: 500 µg/mL protein, 37 °C
Protocol: as §1
(§5) The stability samples of prodrugs and their metabolites, and perfusion samples were determined on an Agilent HPLC system (Agilent Technologies, Santa Clara, CA, USA). […] Standard curves generated for each prodrug and their parent drug were utilized for quantitation of integrated area under peaks. […]
as §4

AsPC-1 cell homogenates [3] = experiment: Enzymatic stability in AsPC-1 cell homogenates; assay type: in vitro ADME; conditions: 500 µg/mL protein, 37 °C
Protocol: as §1, §5, §4

[4] = Enzymatic stability in Panc-1 cell homogenates; assay type: in vitro ADME; conditions: human, Panc-1 cell homogenates, pH 7.4; 500 µg/mL protein, 37 °C; read-out: Panc-1 cell homogenates t1/2
Protocol: as §2, §3, §4

Caco-2 cell homogenates [5] = conditions: cited from earlier work
AsPC-1 cell homogenates [6] = conditions: cited from earlier work
[7] = Enzymatic stability in Caco-2 cell homogenates; assay type: in vitro ADME; conditions: human, Caco-2, pH 7.4; 500 µg/mL protein, 37 °C; read-out: Caco-2 cell homogenates t1/2
Protocol: as §1, §5, §4

[8] = Enzymatic stability in AsPC-1 cell homogenates; assay type: in vitro ADME; conditions: human, AsPC-1 cell homogenates, pH 7.4; 500 µg/mL protein, 37 °C; read-out: AsPC-1 cell homogenates t1/2
Protocol: as §1, §5, §4

AsPC-1 cells = test system: AsPC-1 cells; set-up: method as in PMID 18652477; conditions: cited from earlier work

Compound | degradation in AsPC-1 cells compared with Caco-2 and Panc-1 cells [1] | Panc-1 cell homogenates t1/2 (Panc-1 cell homogenates) [min] | Caco-2 cell homogenates t1/2 (Caco-2 cell homogenates [2]) [min] | AsPC-1 cell homogenates t1/2 (AsPC-1 cell homogenates [3]) [min] | half-life [4] [min] | Caco-2 cell homogenates t1/2 (Caco-2 cell homogenates [5]) | AsPC-1 cell homogenates t1/2 (AsPC-1 cell homogenates [6]) | half-life [7] [min] | half-life [8] [min] | GI50 (AsPC-1 cells) [mM]
2′,2′-difluoro-2′-deoxyuridine [Gemcitabine] | three- to four- times faster | >120 | 105.0 ± 6.1 | 33.7 ± 14.5 | – | – | – | – | – | –
NC(Cc1ccccc1)C(=O)NC(Cc1ccc(O)cc1)C(=O)OCC1OC(n2cc(F)c(=O)[nH]c2=O)CC1O [5′-L-Phenylalanyl-L-tyrosyl-floxuridine] | – | – | – | – | 40.4 ± 0.2 | 103.8 ± 55.5 ^b min | 59.7 ± 1.4 ^b min | – | – | –
Nc1ccn(C2OC(COC(=O)C(Cc3ccc(O)cc3)NC(=O)C(N)Cc3ccccc3)C(O)C2(F)F)c(=O)n1 [5′-L-Phenylalanyl-L-tyrosyl-gemcitabine] | – | – | – | – | 30.2 ± 1.1 | – | – | 14.7 ± 4.4 | 8.1 ± 0.6 | –
O=c1[nH]c(=O)n([C@H]2C[C@H](O)[C@@H](CO)O2)cc1F [Floxuridine, 5-fluoro-2′-deoxyuridine] | two- to six-times faster | – | – | – | 41.7 ± 6.8 | 14.3 ± 7.0 ^a min | 6.4 ± 3.2 ^a min | – | – | 22.9 ± 5.7
